From ChEMBL document CHEMBL5316322, “Discovery and Characterization of the Topical Soft JAK Inhibitor CEE321 for Atopic Dermatitis” (J Med Chem, 2023)

Columns and labels:
JAK1/TYK2 = JAK1/TYK2 (Homo sapiens, UniProt P23458+P29597); type: cell-based, M07E
Description: Inhibition of JAK1/TYK2 in human M07E cells assessed as reduction of IFN alpha stimulated STAT phosphorylation preincubated for 30 mins followed by IFN alpha stimulation and measured after 15 mins by flow cytometry method

[1] = target: Tyrosine-protein kinase JAK2 (Homo sapiens, UniProt O60674)
[2] = Lipophilicity, log D of the compound; type: physicochemical; details: octanol/water
in vitro = details: human, liver microsomes
Description: Microsomal stability in human liver microsomes assessed as intrinsic clearance

[3] = target: T1, Tyrosine-protein kinase JAK3 (Homo sapiens, UniProt P52333)
T1 sequence (P52333 whole entry): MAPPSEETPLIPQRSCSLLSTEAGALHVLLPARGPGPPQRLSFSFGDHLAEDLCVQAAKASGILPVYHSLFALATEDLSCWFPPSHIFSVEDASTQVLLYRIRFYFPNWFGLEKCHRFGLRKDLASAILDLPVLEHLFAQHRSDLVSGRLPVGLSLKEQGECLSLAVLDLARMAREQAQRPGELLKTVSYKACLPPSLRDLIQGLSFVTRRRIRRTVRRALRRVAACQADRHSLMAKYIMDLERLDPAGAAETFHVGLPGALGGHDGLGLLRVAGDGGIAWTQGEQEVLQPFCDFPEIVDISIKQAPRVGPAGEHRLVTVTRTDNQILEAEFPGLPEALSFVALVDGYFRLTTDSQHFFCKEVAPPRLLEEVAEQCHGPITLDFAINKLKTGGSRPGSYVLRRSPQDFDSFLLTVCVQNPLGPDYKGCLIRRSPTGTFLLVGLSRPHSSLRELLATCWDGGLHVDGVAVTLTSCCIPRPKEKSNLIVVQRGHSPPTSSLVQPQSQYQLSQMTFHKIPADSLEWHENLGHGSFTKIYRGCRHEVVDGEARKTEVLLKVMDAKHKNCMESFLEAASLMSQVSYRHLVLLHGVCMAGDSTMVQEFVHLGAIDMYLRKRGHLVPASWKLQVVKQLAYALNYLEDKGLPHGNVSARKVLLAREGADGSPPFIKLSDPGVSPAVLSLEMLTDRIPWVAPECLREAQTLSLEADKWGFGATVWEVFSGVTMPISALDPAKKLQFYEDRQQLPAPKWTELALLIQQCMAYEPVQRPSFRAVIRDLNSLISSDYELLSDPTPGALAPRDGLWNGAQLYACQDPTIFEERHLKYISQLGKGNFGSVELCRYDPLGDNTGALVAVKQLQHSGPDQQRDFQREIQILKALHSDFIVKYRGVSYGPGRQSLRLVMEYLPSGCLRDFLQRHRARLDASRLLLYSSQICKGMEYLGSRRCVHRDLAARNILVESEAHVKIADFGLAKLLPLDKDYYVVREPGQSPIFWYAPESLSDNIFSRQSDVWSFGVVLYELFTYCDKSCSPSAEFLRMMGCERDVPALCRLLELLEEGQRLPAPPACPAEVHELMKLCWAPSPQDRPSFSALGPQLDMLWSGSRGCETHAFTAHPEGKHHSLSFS

[4] = target: Non-receptor tyrosine-protein kinase TYK2 (Homo sapiens, UniProt P29597)
Non-receptor tyrosine-protein kinase TYK2, sequence (P29597 whole entry): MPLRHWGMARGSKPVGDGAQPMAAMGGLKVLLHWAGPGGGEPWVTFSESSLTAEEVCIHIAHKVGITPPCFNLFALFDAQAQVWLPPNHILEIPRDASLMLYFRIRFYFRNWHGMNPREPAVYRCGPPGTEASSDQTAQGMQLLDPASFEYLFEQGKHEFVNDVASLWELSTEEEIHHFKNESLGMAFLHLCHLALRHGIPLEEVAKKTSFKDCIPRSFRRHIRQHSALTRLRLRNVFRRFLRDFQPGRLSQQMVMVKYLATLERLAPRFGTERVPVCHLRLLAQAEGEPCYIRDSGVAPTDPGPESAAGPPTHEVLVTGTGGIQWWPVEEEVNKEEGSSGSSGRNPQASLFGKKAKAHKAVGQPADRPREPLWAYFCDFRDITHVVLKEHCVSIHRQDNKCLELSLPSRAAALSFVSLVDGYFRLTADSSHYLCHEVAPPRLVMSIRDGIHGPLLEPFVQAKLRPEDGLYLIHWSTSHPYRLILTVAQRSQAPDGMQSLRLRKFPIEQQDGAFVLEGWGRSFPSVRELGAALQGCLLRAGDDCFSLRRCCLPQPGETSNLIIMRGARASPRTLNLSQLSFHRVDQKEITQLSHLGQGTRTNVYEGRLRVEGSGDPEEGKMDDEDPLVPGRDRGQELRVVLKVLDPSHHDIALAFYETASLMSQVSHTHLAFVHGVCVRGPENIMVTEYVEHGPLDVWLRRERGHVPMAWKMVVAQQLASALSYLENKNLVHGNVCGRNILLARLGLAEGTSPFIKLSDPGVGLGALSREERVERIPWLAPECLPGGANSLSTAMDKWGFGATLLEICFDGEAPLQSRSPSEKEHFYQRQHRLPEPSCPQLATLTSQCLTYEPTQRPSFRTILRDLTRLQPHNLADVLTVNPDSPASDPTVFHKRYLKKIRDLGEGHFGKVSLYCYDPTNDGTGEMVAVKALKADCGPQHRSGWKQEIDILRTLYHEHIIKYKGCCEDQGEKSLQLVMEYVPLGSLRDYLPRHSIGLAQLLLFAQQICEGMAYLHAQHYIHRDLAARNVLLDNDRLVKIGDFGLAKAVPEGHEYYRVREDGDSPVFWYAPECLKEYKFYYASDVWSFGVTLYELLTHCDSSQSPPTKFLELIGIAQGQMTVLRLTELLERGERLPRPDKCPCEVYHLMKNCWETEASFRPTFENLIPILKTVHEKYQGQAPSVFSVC
Description: Inhibition of TYK2 (unknown origin) by caliper technology

JAK3/JAK1 [5] = target: T2, JAK3/JAK1 (Homo sapiens, UniProt P23458+P52333); type: tissue-based, Blood
T2 sequence (P23458 whole entry, one chain of several): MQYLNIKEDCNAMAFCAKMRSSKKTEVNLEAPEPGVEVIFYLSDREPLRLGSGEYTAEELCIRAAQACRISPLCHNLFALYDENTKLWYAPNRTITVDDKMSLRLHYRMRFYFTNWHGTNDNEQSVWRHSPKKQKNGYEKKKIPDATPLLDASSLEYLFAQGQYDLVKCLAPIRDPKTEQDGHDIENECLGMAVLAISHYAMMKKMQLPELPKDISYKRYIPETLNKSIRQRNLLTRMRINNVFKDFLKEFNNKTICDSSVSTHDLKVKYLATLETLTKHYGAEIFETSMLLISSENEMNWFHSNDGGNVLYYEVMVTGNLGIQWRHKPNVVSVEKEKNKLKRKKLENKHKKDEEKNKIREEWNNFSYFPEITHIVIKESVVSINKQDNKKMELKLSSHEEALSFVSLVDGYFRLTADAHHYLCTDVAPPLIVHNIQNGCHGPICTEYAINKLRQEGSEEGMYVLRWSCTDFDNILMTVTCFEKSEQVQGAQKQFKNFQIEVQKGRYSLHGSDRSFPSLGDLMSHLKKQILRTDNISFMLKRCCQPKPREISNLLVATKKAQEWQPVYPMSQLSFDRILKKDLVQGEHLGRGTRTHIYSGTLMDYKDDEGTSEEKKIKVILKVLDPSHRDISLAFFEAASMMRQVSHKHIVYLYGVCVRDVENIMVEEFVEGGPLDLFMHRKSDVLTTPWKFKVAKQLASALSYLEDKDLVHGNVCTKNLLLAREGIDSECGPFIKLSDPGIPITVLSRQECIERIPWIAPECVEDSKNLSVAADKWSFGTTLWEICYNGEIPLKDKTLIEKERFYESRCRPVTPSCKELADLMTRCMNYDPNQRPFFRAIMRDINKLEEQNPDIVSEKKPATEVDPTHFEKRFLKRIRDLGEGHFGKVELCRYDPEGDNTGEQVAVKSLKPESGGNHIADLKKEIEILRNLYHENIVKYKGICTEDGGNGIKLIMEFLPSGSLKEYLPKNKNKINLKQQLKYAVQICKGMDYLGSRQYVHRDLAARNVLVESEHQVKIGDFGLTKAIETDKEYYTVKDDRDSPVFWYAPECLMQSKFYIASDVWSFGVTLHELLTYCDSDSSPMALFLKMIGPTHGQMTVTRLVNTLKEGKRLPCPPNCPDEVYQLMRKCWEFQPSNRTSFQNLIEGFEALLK
Description: Inhibition of JAK1/JAK3 in human blood assessed as reduction of IL-2 stimulated STAT phosphorylation preincubated for 30 mins followed by IL-2 stimulation and measured after 15 mins by flow cytometry method

[6] = target: Tyrosine-protein kinase JAK1 (Homo sapiens, UniProt P23458)
Tyrosine-protein kinase JAK1, sequence (P23458 whole entry): as the sequence (P23458 whole entry, one chain of several) above

JAK3/JAK1 [7] = target: T2, JAK3/JAK1; type: cell-based, M07E
Description: Inhibition of JAK1/JAK3 in human M07E cells assessed as reduction of IL-15 stimulated STAT phosphorylation preincubated for 30 mins followed by IL-15 stimulation and measured after 15 mins by flow cytometry analysis

[8] = Plasma protein binding in human; type: ADME, cell-free; details: read-out: PPB

JAK1/TYK2, sequence (P23458 whole entry): as the sequence (P23458 whole entry, one chain of several) above
JAK1/TYK2, sequence (P29597 whole entry): as the sequence (P29597 whole entry) above
Tyrosine-protein kinase JAK2, sequence (O60674 whole entry): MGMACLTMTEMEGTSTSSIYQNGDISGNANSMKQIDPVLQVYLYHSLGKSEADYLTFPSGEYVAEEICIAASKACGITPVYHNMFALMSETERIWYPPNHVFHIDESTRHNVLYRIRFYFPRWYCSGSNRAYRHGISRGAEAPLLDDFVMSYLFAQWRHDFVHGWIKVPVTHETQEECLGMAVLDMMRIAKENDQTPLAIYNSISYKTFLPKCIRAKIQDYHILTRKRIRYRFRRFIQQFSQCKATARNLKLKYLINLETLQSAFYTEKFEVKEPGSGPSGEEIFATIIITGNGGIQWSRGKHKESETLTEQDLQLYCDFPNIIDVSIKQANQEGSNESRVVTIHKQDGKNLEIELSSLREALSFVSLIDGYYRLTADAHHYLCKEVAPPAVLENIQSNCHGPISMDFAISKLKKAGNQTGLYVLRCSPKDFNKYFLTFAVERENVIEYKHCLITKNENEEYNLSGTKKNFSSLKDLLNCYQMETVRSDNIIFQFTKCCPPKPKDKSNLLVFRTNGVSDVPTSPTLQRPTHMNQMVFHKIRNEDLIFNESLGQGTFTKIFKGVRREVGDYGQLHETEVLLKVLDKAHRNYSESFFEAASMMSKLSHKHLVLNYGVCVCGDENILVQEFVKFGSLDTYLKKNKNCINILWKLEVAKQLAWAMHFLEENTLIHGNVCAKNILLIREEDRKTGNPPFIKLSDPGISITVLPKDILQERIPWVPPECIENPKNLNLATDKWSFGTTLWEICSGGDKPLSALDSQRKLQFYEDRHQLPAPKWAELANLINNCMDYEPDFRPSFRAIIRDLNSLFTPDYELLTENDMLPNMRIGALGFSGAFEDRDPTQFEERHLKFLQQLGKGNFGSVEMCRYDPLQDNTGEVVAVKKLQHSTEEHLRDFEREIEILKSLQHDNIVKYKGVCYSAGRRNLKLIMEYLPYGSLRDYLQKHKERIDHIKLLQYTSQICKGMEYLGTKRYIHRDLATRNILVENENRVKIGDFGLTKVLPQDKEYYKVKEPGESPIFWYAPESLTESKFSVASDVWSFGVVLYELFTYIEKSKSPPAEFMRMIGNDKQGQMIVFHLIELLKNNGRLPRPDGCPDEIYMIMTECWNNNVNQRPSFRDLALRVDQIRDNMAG

Compound | IC50 (JAK1/TYK2) [nM] | IC50 [1] [nM] | logD [2] | microsomal CLint (in vitro) [µL/min/mg] | IC50 [3] [nM] | IC50 [4] [nM] | IC50 (JAK3/JAK1 [5]) [nM] | IC50 [6] [nM] | IC50 (JAK3/JAK1 [7]) [nM] | fraction unbound [8]
COc1ccccc1Nc1cc(Nc2cccc(C)n2)ncc1C(N)=O | 33 | 14 | 3.7 | 179 | 18 | 15 | 994 | 14 | 85 | –
COc1ccccc1Nc1cc(Nc2ccccn2)ncc1C(N)=O | 31 | 8 | 3.4 | 210 | 11 | 6 | 340 | 9 | 45 | –
NC(=O)c1cnc(Nc2ccccn2)cc1Nc1ccccc1Cl | 84 | 27 | 3.7 | 227 | 10 | 11 | 564 | 22 | 41 | < 0.01

Results, then the compound that gave them:

IC50 (JAK1/TYK2) [nM] | IC50 [1] [nM] | logD [2] | microsomal CLint (in vitro) [µL/min/mg] | IC50 [3] [nM] | IC50 [4] [nM] | IC50 (JAK3/JAK1 [5]) [nM] | IC50 [6] [nM] | IC50 (JAK3/JAK1 [7]) [nM] | fraction unbound [8] | Compound
– | – | – | < 25 | – | – | – | – | – | – | CC[C@@H]1CN(C(=O)NCC(F)(F)F)C[C@@H]1c1cnc2cnc3[nH]ccc3n12 [UPADACITINIB]
– | – | – | < 25 | – | – | – | – | – | – | CCS(=O)(=O)N1CC(CC#N)(n2cc(-c3ncnc4[nH]ccc34)cn2)C1 [BARICITINIB]
